Consider 29 molecules from patent US7994209B2, “3-phenoxymethylpyrrolidine compounds” (Theravance, Inc., priority 2009, dated 2011).

Bounds are passed on as bounds.

Assay [1] concerns the target T1, hSERT (Homo sapiens, UniProt P31645). As to the kind of experiment: hSERT neurotransmitter uptake assay (3H-5-HT), Assay 2. In kind it is cell-based. On the set-up: expressed in transfected cells; host or cells: HEK-293. As to conditions: serotonin reuptake inhibition, 3H-5-HT uptake, HEK-293 hSERT cells (values without asterisk); read-out: SERT pIC50 (converted).
In assay [2] the target is T2, hNET (Homo sapiens, UniProt P23975). The experiment in a line: hNET neurotransmitter uptake assay (3H-NE), Assay 2. In kind it is cell-based. On the set-up: expressed in transfected cells; host or cells: HEK-293. As to conditions: norepinephrine reuptake inhibition, 3H-NE uptake, HEK-293 hNET cells (values without asterisk); read-out: NET pIC50 (converted).
In assay [3] the target is T2, hNET. The experiment in a line: hNET membrane radioligand binding assay (3H-nisoxetine), Assay 1.
Assay [4] has as its target T1, hSERT. The experiment in a line: hSERT membrane radioligand binding assay (3H-citalopram), Assay 1. As to conditions: SERT pKi, hSERT HEK-293 membranes, 1.0 nM 3H-citalopram; values given as lower bounds.

T2 sequence (P23975 whole entry): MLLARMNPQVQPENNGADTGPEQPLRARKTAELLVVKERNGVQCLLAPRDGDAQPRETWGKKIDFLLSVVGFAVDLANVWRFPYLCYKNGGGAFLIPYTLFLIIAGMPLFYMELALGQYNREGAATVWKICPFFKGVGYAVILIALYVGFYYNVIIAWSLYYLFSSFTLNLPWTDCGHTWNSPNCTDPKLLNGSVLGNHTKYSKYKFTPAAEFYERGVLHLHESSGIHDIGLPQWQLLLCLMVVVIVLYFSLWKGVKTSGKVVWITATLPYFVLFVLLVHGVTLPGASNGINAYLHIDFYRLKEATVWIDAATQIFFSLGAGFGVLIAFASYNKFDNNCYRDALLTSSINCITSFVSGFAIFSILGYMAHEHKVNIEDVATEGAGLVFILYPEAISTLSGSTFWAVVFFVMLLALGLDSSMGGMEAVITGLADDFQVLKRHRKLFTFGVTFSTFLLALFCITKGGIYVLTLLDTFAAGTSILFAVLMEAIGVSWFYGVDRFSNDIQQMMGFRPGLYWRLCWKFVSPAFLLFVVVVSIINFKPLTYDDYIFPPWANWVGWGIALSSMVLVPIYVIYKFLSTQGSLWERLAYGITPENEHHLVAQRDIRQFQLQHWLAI
T1 sequence (P31645 whole entry): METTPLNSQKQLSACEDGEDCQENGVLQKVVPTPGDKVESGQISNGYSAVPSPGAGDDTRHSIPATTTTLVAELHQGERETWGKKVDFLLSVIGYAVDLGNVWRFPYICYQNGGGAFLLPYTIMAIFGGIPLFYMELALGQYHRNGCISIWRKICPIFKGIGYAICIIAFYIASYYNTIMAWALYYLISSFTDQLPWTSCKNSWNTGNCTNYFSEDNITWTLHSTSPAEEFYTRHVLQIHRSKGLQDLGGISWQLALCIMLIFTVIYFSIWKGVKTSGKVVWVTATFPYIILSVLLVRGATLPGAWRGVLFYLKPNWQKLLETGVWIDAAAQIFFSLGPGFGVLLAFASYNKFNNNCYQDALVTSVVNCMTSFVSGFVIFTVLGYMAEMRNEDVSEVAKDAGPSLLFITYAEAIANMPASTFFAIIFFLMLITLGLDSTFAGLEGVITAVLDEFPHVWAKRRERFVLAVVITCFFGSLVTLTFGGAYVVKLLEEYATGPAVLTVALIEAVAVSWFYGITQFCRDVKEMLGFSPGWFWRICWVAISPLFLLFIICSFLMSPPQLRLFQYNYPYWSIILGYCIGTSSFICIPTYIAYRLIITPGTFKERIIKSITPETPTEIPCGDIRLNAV

For the molecule `CC[C@H](Oc1ccc(F)cc1OC)[C@H]1CCNC1` [Example 2-69, (S)-3-[(S)-1-(4-Fluoro-2-methoxyphenoxy)propyl]pyrrolidine], the IC50 on hSERT [1] and at hNET [2] was not above 100 nM in each case. For the same molecule, the values for the Ki at hNET [3] and at hSERT [4] were not above 10 nM and not above 100 nM, respectively.

Regarding `CCC[C@H](Oc1c(Cl)cccc1Cl)[C@H]1CCNC1` [Example 4-33, (S)-3-[(S)-1-(2,6-Dichlorophenoxy)butyl]pyrrolidine], the IC50 was not above 100 nM on hSERT [1] and not above 10 nM at hNET [2]. The Ki at hNET [3] and at hSERT [4] was not above 10 nM in each case.

For the molecule `CCCC[C@@H](Oc1cc(F)c(F)cc1F)[C@H]1CCNC1` [Example 7, (S)-3-[(R)-1-(2,4,5-Trifluorophenoxy)pentyl]pyrrolidine], the IC50 is not above 100 nM on hSERT [1] and not above 10 nM on hNET [2]. For the same molecule, the inhibition constant (Ki) at hNET [3] and on hSERT [4] was not above 10 nM throughout.

For the molecule `CCC[C@H](Oc1cccc(Cl)c1C)[C@H]1CCNC1` [Example 4-54, (S)-3-[(S)-1-(3-Chloro-2-methylphenoxy)butyl]pyrrolidine], the IC50 at hSERT [1] and at hNET [2] was not above 10 nM throughout. The Ki on hNET [3] and at hSERT [4] was not above 10 nM each time.

On to `CC(C)C[C@@H](Oc1cccc(Cl)c1Cl)[C@H]1CCNC1` [Example 10-23, (S)-3-[(R)-1-(2,3-Dichlorophenoxy)-3-methylbutyl]pyrrolidine], for which the IC50 on hSERT [1] and at hNET [2] was not above 10 nM each time. Also, the Ki at hNET [3] and on hSERT [4] was not above 10 nM in each case.

As to `CCc1cc(F)cc(F)c1O[C@@H](C1CC1)[C@H]1CCNC1` [Example 16-81, (S)-3-[(S)cyclopropyl-(2-ethyl-4,6-difluorophenoxy)-methyl]pyrrolidine], the values for the IC50 at hSERT [1] and on hNET [2] were not above 100 nM and not above 10 nM, respectively. The Ki at hNET [3] and at hSERT [4] was not above 10 nM throughout.

As for `CC(C)C[C@H](Oc1ccc(F)cc1)[C@H]1CCNC1` [Example 10-8, (S)-3-[(S)-1-(4-Fluorophenoxy)-3-methylbutyl]pyrrolidine], the IC50 at hSERT [1] was not above 100 nM; at hNET [2] it was not above 10 nM. In addition, the Ki on hNET [3] and on hSERT [4] was not above 10 nM in each case.

For `CCC[C@@H](Oc1cc(Cl)cc(Cl)c1)[C@H]1CCNC1` [Example 4-7, (S)-3-[(R)-1-(3,5-Dichlorophenoxy)butyl]pyrrolidine], the IC50 on hSERT [1] and at hNET [2] was not above 10 nM each time. The Ki at hNET [3] and on hSERT [4] was not above 10 nM throughout.

On to `CC[C@H](Oc1c(F)cc(F)cc1F)[C@H]1CCNC1` [Example 2-55, (S)-3-[(S)-1-(2,4,6-Trifluorophenoxy)propyl]pyrrolidine], for which the IC50 on hSERT [1] is not above 100 nM; on hNET [2] it was not above 10 nM. In addition, the Ki at hNET [3] and at hSERT [4] was not above 10 nM each time.

As to `CC(C)C[C@H](Oc1cccc(F)c1Cl)[C@H]1CCNC1` [Example 10-25, (S)-3-[(S)-1-(2-Chloro-3-fluorophenoxy)-3-methylbutyl]pyrrolidine], the IC50 at hSERT [1] and at hNET [2] was not above 10 nM throughout. For the same molecule, the Ki on hNET [3] and on hSERT [4] was not above 10 nM in each case.

Turning to `CCC[C@@H](Oc1cccc2ccccc12)[C@H]1CCNC1` [Example 14-2, (S)-3-[(R)-1-(Naphthalen-1-yloxy)butyl]pyrrolidine], the IC50 at hSERT [1] and on hNET [2] was not above 10 nM each time. The Ki on hNET [3] and on hSERT [4] was not above 10 nM throughout.

As for `Fc1cccc(O[C@H](C2CCCCC2)[C@H]2CCNC2)c1Cl` [Example 20-5, (S)-3-[(R)-(2-Chloro-3-fluorophenoxy)cyclohexylmethyl]pyrrolidine], the IC50 at hSERT [1] and on hNET [2] was not above 10 nM each time. Further, the Ki at hNET [3] and at hSERT [4] was not above 10 nM in each case.

Consider `CC(C)CC(Oc1cccc(C(F)(F)F)c1Cl)C1CCNC1` (centres unmarked) [Example 10-29, 3-[1-(2-Chloro-3-trifluoromethylphenoxy)-3-methylbutyl]pyrrolidine], for which the IC50 at hSERT [1] and on hNET [2] was not above 10 nM in each case. The Ki on hNET [3] and at hSERT [4] was not above 10 nM throughout.

As for `Cc1ccc(O[C@@H](C2CC2)[C@H]2CCNC2)c(Cl)c1` [Example 16-23, (S)-3-[(S)-(2-Chloro-4-methylphenoxy)cyclopropylmethyl]pyrrolidine], the IC50 at hSERT [1] and at hNET [2] was not above 10 nM throughout. Moreover, the Ki at hNET [3] and at hSERT [4] was not above 10 nM in each case.

Regarding `CC(C)C[C@H](Oc1cccc(Cl)c1C(F)(F)F)[C@H]1CCNC1` [Example 10-36, (S)-3-[(S)-1-(3-Chloro-2-trifluoromethylphenoxy)-3-methylbutyl]pyrrolidine], the IC50 on hSERT [1] and on hNET [2] was not above 10 nM throughout. The Ki on hNET [3] and at hSERT [4] was not above 10 nM each time.

Take `CC(C)[C@H](Oc1cccc2ccccc12)[C@H]1CCNC1` [Example 14-5, (S)-3-[(S)-2-Methyl-1-(naphthalen-1-yloxy)propyl]pyrrolidine]: the IC50 on hSERT [1] and on hNET [2] was not above 10 nM each time. In addition, the Ki at hNET [3] and on hSERT [4] was not above 10 nM in each case.

Consider `CC(C)C[C@H](Oc1cccc(Cl)c1F)[C@H]1CCNC1` [Example 10-19, (S)-3-[(S)-1-(3-Chloro-2-fluorophenoxy)-3-methylbutyl]pyrrolidine], for which the IC50 at hSERT [1] and at hNET [2] was not above 10 nM each time. Moreover, the Ki at hNET [3] and on hSERT [4] was not above 10 nM throughout.

As for `CC(C)[C@H](Oc1c(F)cc(Cl)cc1Cl)[C@H]1CCNC1` [Example 6-30, (S)-3-[(S)-1-(2,4-Dichloro-6-fluorophenoxy)-2-methylpropyl]pyrrolidine], the IC50 on hSERT [1] and at hNET [2] was not above 10 nM throughout. For the same molecule, the Ki on hNET [3] and on hSERT [4] was not above 10 nM throughout.

As for `CCC[C@@H](Oc1cccc(Cl)c1Cl)[C@@H]1CCNC1` [Example 4-25, (R)-3-[(R)-1-(2,3-Dichlorophenoxy)butyl]pyrrolidine], the IC50 at hSERT [1] and on hNET [2] was not above 10 nM throughout. Moreover, the Ki at hNET [3] and at hSERT [4] was not above 10 nM each time.

`CCC[C@H](Oc1ccc(F)cc1Cl)[C@H]1CCNC1` [Example 4-32, (S)-3-[(S)-1-(2-Chloro-4-fluorophenoxy)butyl]pyrrolidine]: the IC50 at hSERT [1] and on hNET [2] was not above 10 nM throughout. In addition, the Ki on hNET [3] and at hSERT [4] was not above 10 nM throughout.

Take `CC(C)CC(Oc1ccc(F)cc1)C1CCNC1` (centres unmarked) [Example 10-9, 3-[1-(4-Fluorophenoxy)-3-methylbutyl]pyrrolidine]: the IC50 at hSERT [1] is not above 100 nM; on hNET [2] it was not above 10 nM. For the same molecule, the Ki at hNET [3] and on hSERT [4] was not above 10 nM in each case.

In the case of `CCc1cc(F)ccc1O[C@@H](C1CC1)[C@H]1CCNC1` [Example 16-34, (S)-3-[(S)cyclopropyl-(2-ethyl-4-fluorophenoxy)-methyl]pyrrolidine], the IC50 at hSERT [1] and on hNET [2] was not above 10 nM in each case. In addition, the Ki on hNET [3] and at hSERT [4] was not above 10 nM in each case.

Consider `CC(C)C[C@H](Oc1ccc(Cl)c(Cl)c1F)[C@H]1CCNC1` [Example 10-61, (S)-3-[(S)-1-(3,4-Dichloro-2-fluorophenoxy)-3-methylbutyl]pyrrolidine], for which the IC50 at hSERT [1] and on hNET [2] was not above 10 nM throughout. For the same molecule, the Ki at hNET [3] and at hSERT [4] was not above 10 nM in each case.

In the case of `Fc1ccc(F)c(O[C@@H](C2CC2)[C@H]2CCNC2)c1Cl` [Example 16-61, (S)-3-[(S)-(2-Chloro-3,6-difluorophenoxy)cyclopropylmethyl]pyrrolidine], the IC50 at hSERT [1] was not above 100 nM; on hNET [2], not above 10 nM. The Ki at hNET [3] and at hSERT [4] was not above 10 nM throughout.

Consider `CC(C)CC(Oc1ccccc1Cl)C1CCNC1` (centres unmarked) [Example 10-3, 3-[1-(2-Chlorophenoxy)-3-methylbutyl]pyrrolidine], for which the results for the IC50 at hSERT [1] and on hNET [2] were not above 100 nM and not above 10 nM, respectively. For the same molecule, the Ki at hNET [3] and at hSERT [4] was not above 10 nM throughout.

With `CC[C@H](Oc1ccccc1C)[C@H]1CCNC1` [Example 2-62, (S)-3-((S)-1-o-Tolyloxypropyl)pyrrolidine], the IC50 on hSERT [1] was not above 100 nM; at hNET [2] it was not above 10 nM. Besides, the Ki at hNET [3] and at hSERT [4] was not above 10 nM throughout.

For the molecule `CC(C)CC(Oc1ccc(Cl)cc1F)C1CCNC1` (centres unmarked) [Example 10-39, 3-[1-(4-Chloro-2-fluorophenoxy)-3-methylbutyl]pyrrolidine], the IC50 on hSERT [1] and at hNET [2] was not above 10 nM each time. Also, the Ki on hNET [3] and at hSERT [4] was not above 10 nM in each case.

In the case of `CC(C)[C@@H](Oc1cc(Cl)cc(Cl)c1)[C@H]1CCNC1` [Example 6-68, (S)-3-[(R)-1-(3,5-Dichlorophenoxy)-2-methylpropyl]pyrrolidine], the IC50 at hSERT [1] and at hNET [2] was not above 10 nM throughout. The Ki at hNET [3] and on hSERT [4] was not above 10 nM each time.

Consider `CCC[C@H](Oc1cc(Cl)cc(Cl)c1)[C@H]1CCNC1` [Example 4-6, (S)-3-[(S)-1-(3,5-Dichlorophenoxy)butyl]pyrrolidine], for which the IC50 at hSERT [1] and at hNET [2] was not above 10 nM throughout. For the same molecule, the Ki at hNET [3] and at hSERT [4] was not above 10 nM in each case.
